Patent US11986493B2 (University of Pittsburgh—Of the Commonwealth System of …, priority 2013, dated 2024)

Test system: subjects with pulmonary hypertension (WHO group I PAH, WHO group III PH)
Assay: Right heart catheterization: right heart/pulmonary artery hemodynamics, thermodilution cardiac output, PVR and SVR after inhaled NO and nebulized nitrite
Assay type: in vivo, human
Procedure: A total of 6 subjects with a confirmed diagnosis of pulmonary hypertension and meeting all inclusion/exclusion criteria were enrolled in the study which entailed a single right heart catheterization. The study population consisted of subjects with WHO group I PAH (n=3) and subjects with WHO group III PH (n=3) which received the dose escalation paradigm:
During the study right heart/pulmonary artery hemodynamics were measured as well as noninvasive systemic blood pressure monitoring and simultaneous RV echocardiography. Subjects were tested for the changes in pulmonary vascular resistance (PVR) measured by right heart catheterization and using thermodilution cardiac output measurement at time zero, at times 15, 30 and 45 minutes after completion of each nebulization dose.
Following right heart catheterization, the patient was stabilized for 20 minutes. Baseline blood collections and hemodynamic measurements were performed, followed by treatment with 40 ppm inhaled NO gas for […] with repeat hemodynamic measurements performed.
After stopping inhaled NO gas, a single dose of sildenafil was given if patients were on background sildenafil therapy at previously prescribed doses. 45-minutes after sildenafil dose baseline hemodynamics were performed.
Subjects were monitored carefully during and after the study treatment.
The study was conducted at the 3rd FL Catheterization Laboratory at Presbyterian Hospital of the University of Pittsburgh Medical Center (UPMC). Baseline vasoreactivity was recorded after Inhaled NO at 40 ppm for […]. […] Subjects were instructed to breathe as calmly, and deeply as possible until no more mist was formed in the nebulizer chamber. Subjects were also instructed to hold their breath for approximately 10 seconds after inhalation to allow the study drug to reach deep into the lungs.

[1] = Patient 1, nitrite 45 mg inhaled, 15 min
[2] = Patient 1, nitrite 45 mg inhaled, 30 min
[3] = Patient 1, nitrite 45 mg inhaled, 45 min
[4] = Patient 1, nitrite 45 mg inhaled, 60 min
[5] = Patient 1, nitrite 90 mg inhaled, 15 min
[6] = Patient 1, nitrite 90 mg inhaled, 30 min
[7] = Patient 1, nitrite 90 mg inhaled, 45 min
[8] = Patient 1, nitrite 90 mg inhaled, 60 min
[9] = Patient 2, nitrite 45 mg inhaled, 15 min
[10] = Patient 2, nitrite 45 mg inhaled, 30 min
[11] = Patient 2, nitrite 45 mg inhaled, 45 min
[12] = Patient 2, nitrite 45 mg inhaled, 60 min
[13] = Patient 2, nitrite 90 mg inhaled, 15 min
[14] = Patient 2, nitrite 90 mg inhaled, 30 min
[15] = Patient 2, nitrite 90 mg inhaled, 45 min
[16] = Patient 2, nitrite 90 mg inhaled, 60 min
[17] = Patient 3, nitrite 45 mg inhaled, 15 min
[18] = Patient 3, nitrite 45 mg inhaled, 30 min
[19] = Patient 3, nitrite 45 mg inhaled, 45 min
[20] = Patient 3, nitrite 45 mg inhaled, 60 min
[21] = Patient 3, nitrite 90 mg inhaled, 15 min
[22] = Patient 3, nitrite 90 mg inhaled, 30 min
[23] = Patient 3, nitrite 90 mg inhaled, 45 min
[24] = Patient 3, nitrite 90 mg inhaled, 60 min

## O=NO [nitrite, sodium nitrite]
[1]
  CI: 2.47
  CO: 4.77
  PA sat: 66
  PAD: 35
  PAS: 93
  PCWP: 11
  PVR: 9.09
  PVR/SVR: 0.58
  RA: 9
  RVD: 8
  RVS: 98
  SVR: 15.66
  TPR: 11.39
  mPAP: 54.34
[2]
  CI: 2.65
  CO: 5.12
  PA sat: 68
  PAD: 36
  PAS: 98
  PCWP: 7
  PVR: 9.70
  PVR/SVR: 0.64
  RA: 10
  RVD: 10
  RVS: 94
  SVR: 15.24
  TPR: 11.07
  mPAP: 56.67
[3]
  CI: 2.51
  CO: 4.85
  PA sat: 63
  PAD: 38
  PAS: 100
  PCWP: 9
  PVR: 10.24
  PVR/SVR: 0.66
  RA: 9
  RVD: 9
  RVS: 95
  SVR: 15.53
  TPR: 12.10
  mPAP: 58.67
[4]
  CI: 3.11
  CO: 6.01
  PA sat: 62
  PAD: 36
  PAS: 98
  PCWP: 7
  PVR: 8.27
  PVR/SVR: 0.63
  RA: 9
  RVD: 9
  RVS: 94
  SVR: 13.15
  TPR: 9.43
  mPAP: 56.67
[5]
  CI: 2.93
  CO: 5.65
  PA sat: 64
  PAD: 32
  PAS: 92
  PCWP: 2
  PVR: 8.85
  PVR/SVR: 0.68
  RA: 3
  RVD: 3
  RVS: 96
  SVR: 13.10
  TPR: 9.20
  mPAP: 52.01
[6]
  CI: 2.99
  CO: 5.77
  PA sat: 61
  PAD: 32
  PAS: 92
  PCWP: 2
  PVR: 8.67
  PVR/SVR: 0.68
  RA: 4
  RVD: 3
  RVS: 91
  SVR: 12.83
  TPR: 9.01
  mPAP: 52.01
[7]
  CI: 3.22
  CO: 6.22
  PA sat: 62
  PAD: 31
  PAS: 90
  PCWP: 2
  PVR: 7.83
  PVR/SVR: 0.67
  RA: 3
  RVD: 3
  RVS: 92
  SVR: 11.63
  TPR: 8.15
  mPAP: 50.67
[8]
  CI: 3.14
  CO: 6.06
  PA sat: 62
  PAD: 30
  PAS: 90
  PCWP: 3
  PVR: 7.76
  PVR/SVR: 0.61
  RA: 3
  RVD: 2
  RVS: 88
  SVR: 12.65
  TPR: 8.25
  mPAP: 50.01
[9]
  CI: 3.67
  CO: 7.08
  PAD: 19
  PAS: 57
  PCWP: 8
  PVR: 3.34
  PVR/SVR: 0.25
  RA: 6
  SVR: 13.28
  TPR: 4.47
  mPAP: 31.67
[10]
  CI: 3.88
  CO: 7.48
  PAD: 22
  PAS: 64
  PCWP: 9
  PVR: 3.61
  PVR/SVR: 0.30
  RA: 6
  SVR: 11.99
  TPR: 4.81
  mPAP: 36.01
[11]
  CI: 3.93
  CO: 7.58
  PAD: 21
  PAS: 62
  PCWP: 8
  PVR: 3.52
  PVR/SVR: 0.29
  RA: 3
  SVR: 12.23
  TPR: 4.57
  mPAP: 34.67
[12]
  CI: 3.89
  CO: 7.5
  PAD: 21
  PAS: 64
  PCWP: 8
  PVR: 3.65
  PVR/SVR: 0.32
  RA: 4
  SVR: 11.38
  TPR: 4.71
  mPAP: 35.34
[13]
  CI: 3.81
  CO: 7.35
  PAD: 20
  PAS: 57
  PCWP: 8
  PVR: 3.31
  PVR/SVR: 0.25
  RA: 2
  SVR: 13.06
  TPR: 4.40
  mPAP: 32.34
[14]
  CI: 4.60
  CO: 8.87
  PAD: 22
  PAS: 60
  PCWP: 6
  PVR: 3.23
  PVR/SVR: 0.31
  RA: 3
  SVR: 10.41
  TPR: 3.91
  mPAP: 34.67
[15]
  CI: 4.19
  CO: 8.09
  PAD: 21
  PAS: 62
  PCWP: 7
  PVR: 3.42
  PVR/SVR: 0.28
  RA: 3
  SVR: 12.12
  TPR: 4.29
  mPAP: 34.67
[16]
  CI: 4.56
  CO: 8.8
  PAD: 22
  PAS: 68
  PCWP: 6
  PVR: 3.56
  PVR/SVR: 0.33
  RA: 5
  RVD: 3
  RVS: 62
  SVR: 10.76
  TPR: 4.24
  mPAP: 37.34
[17]
  CI: 3.19
  CO: 6.63
  PAD: 19
  PAS: 80
  PCWP: 14
  PVR: 3.82
  PVR/SVR: 0.45
  RA: 12
  SVR: 8.55
  TPR: 5.93
  mPAP: 39.34
[18]
  CI: 3.08
  CO: 6.4
  PAD: 20
  PAS: 70
  PCWP: 15
  PVR: 3.39
  PVR/SVR: 0.37
  RA: 10
  SVR: 9.22
  TPR: 5.73
  mPAP: 35.67
[19]
  CI: 3.17
  CO: 6.6
  PAD: 20
  PAS: 74
  PCWP: 14
  PVR: 3.64
  PVR/SVR: 0.42
  RA: 13
  SVR: 8.64
  TPR: 5.76
  mPAP: 38.01
[20]
  CI: 3.07
  CO: 6.39
  PAD: 20
  PAS: 70
  PCWP: 14
  PVR: 3.55
  PVR/SVR: 0.40
  RA: 13
  SVR: 8.92
  TPR: 5.74
  mPAP: 36.67
[21]
  CI: 3.69
  CO: 7.67
  PAD: 19
  PAS: 69
  PCWP: 13
  PVR: 2.96
  PVR/SVR: 0.40
  RA: 12
  SVR: 7.48
  TPR: 4.65
  mPAP: 35.67
[22]
  CI: 2.41
  CO: 5.01
  PAD: 17
  PAS: 73
  PCWP: 11
  PVR: 4.92
  PVR/SVR: 0.39
  RA: 10
  SVR: 12.51
  TPR: 7.12
  mPAP: 35.67
[23]
  CI: 2.94
  CO: 6.11
  PAD: 19
  PAS: 71
  PCWP: 12
  PVR: 3.98
  PVR/SVR: 0.42
  RA: 11
  SVR: 9.55
  TPR: 5.95
  mPAP: 36.34
[24]
  CI: 3.34
  CO: 6.95
  PAD: 20
  PAS: 72
  PCWP: 14
  PVR: 3.36
  PVR/SVR: 0.36
  RA: 9
  RVD: 8
  RVS: 71
  SVR: 9.31
  TPR: 5.37
